Legend:
LNCaP cells [1] = test: Cell proliferation (cell number per dish); assay type: cell-based, human; conditions: for effect on proliferation in cells treated with the sAC inhibitor KH7: co-treatment with KH7, 24 hours; for effect on proliferation: LNCaP control cells, H-89 3 μmol/L, RpcAMP 100 μmol/L
Protocol: (§1) FIG. 2 is a graph which illustrates experimental data depicting the effects of the sAC inhibitor KH7 on prostate cancer cell proliferation. Statistical analyses are presented for cellular cAMP content and cell number per dish (starting density: 150,000 cells/dish) 24 hours after KH7 treatment. Values are the mean±SEM (n=5-8). *p<0.05 vs. 0 μmol/L KH7.
(§2) FIG. 3A is an image depicting data from Western blot analysis of lysates of LNCaP cells after treatment with sAC-specific or scrambled siRNA for 72 hours (left panel) or after treatment with sAC-specific or scrambled shRNA for 72 hours (right panel). FIGS. 3B-D are graphs and images which illustrate experimental data depicting the effects of siRNA or shRNA transfection on cell proliferation (FIG. 3B), LDH activity in the cell culture medium (relative units (r.u.)) (FIG. 3C), and cleavage of caspase-3 (FIG. 3D). […] The Western blot data are representative of five independent experiments with similar results.
(§3) FIGS. 5A-5E are graphs and images which illustrate experimental data depicting that sAC controls proliferation and the cell cycle in a PKA-independent and EPAC-dependent manner. FIGS. 5A-5C are graphs depicting statistical analyses of cell number per dish (FIG. 5A), LDH activity in the cell culture medium (relative units (r.u.)) (FIG. 5B), and G2 phase populations (FIG. 5C). Treatments (all 24 hours) were as follows: […], 100 mol/liter 8-pCPT-cAMP (8-pCPT), 100 mol/liter N6-benzoyl-cAMP (6-Bnz), 3 mol/liter H-89, or 100 mol/liter (Rp)-cAMP-S(RpcAMP). […] FIGS. 5D and 5E are images depicting Western blot analysis of the active form of Rap1 (Rap1-GTP) and phosphorylated forms of B-Raf performed with LNCaP cell lysates. Treatment conditions were similar to those described for FIGS. 5A-5C. Treatment was performed for 18 hours. All Western blot data are representative of four to six independent experiments with similar results.
(§4) The androgen-sensitive LNCaP (ATCC-Nr. CRL-1740D) human prostate carcinoma cell line, the androgen-insensitive PC3 (ATCC-Nr. CRL-1435D) human prostate carcinoma cell line, and neuroblastoma cell line SH-SY5Y (ATCC-Nr. CRL-2266) were purchased from the American Type Culture Collection, and human normal prostate epithelial cell line PNT2 was purchased from Sigma-Aldrich (Cat. Nr. 95012613). Cells were expanded and frozen in aliquots within four weeks of purchase. Cells were thawed and cultured for no more than three further passages. PNT2 cells were cultured in medium RPMI1640 supplemented with 10% fetal calf serum, glutamine and antibiotics. All other cells were cultured in Dulbecco's modified Eagle's medium that was supplemented with 5% fetal calf serum, glutamine, and antibiotics. The cells (1.5×10^5) were seeded in culture medium with 2% fetal calf serum 24 hours prior to each experiment.
To further substantiate the role of sAC in cell growth and death, the sAC gene expression/sAC protein production was suppressed in LNCaP cells. Two different methods of sAC knockdown, lipofectamine-based transfection with sAC-specific siRNA or adenoviral transfection with shRNA, were used to further rule out the possibility of KH7 off-target effects. For lipofectamine-based siRNA transfection, LNCaP cells were treated with siRNA duplexes that consisted of four different predesigned sequences targeting the human sAC mRNA sequence (GenBank Accession No. NM_001167749; Dharmacon, Lafayette, Colo.; catalogue no. L-006353-00,). In the control group, cells were treated with scrambled non-targeting siRNA (Dharmacon, Lafayette, Colo.; catalogue no. D-001810-10). Cells were transfected following the manufacturer's instructions. Briefly, cells were seeded 1 day before transfection in Dulbecco's modified Eagle's medium that was supplemented with 2% fetal calf serum without antibiotics.

LNCaP cells [2] = test: LDH activity in the cell culture medium; assay type: cell-based, human; conditions: for effect on cytotoxicity (LDH activity): 24 hours, H-89 3 μmol/L, RpcAMP 100 μmol/L
Protocol: as §2, §3

LNCaP cells [3] = test: FACS-based cell cycle analysis; design: species or system human; conditions: for effect on distribution of the cell population within the cell cycle: 24 hours, H-89 3 μmol/L, RpcAMP 100 μmol/L
Text: (§5) Treatment conditions were similar to those described for FIGS. 4A-4D. All Western blot data are representative of three to five independent experiments with similar results.
as §3
To understand the mechanisms responsible for the anti-proliferative effect of sAC inhibition, cell cycle analysis was performed using FACS-based cell cycle analysis. Specifically, LNCaP cells were fixed with 70% alcohol, stained with propidium iodide, and treated with RNase (BD Biosciences, San Jose, Calif.). DNA content was analyzed using a FACSCALIBUR™ flow cytometer (BD Biosciences, San Jose, Calif.) and FLOWJO™ software.

LNCaP cells [4] = test: Western blot of Rap1-GTP, Rap1, phospho-B-Raf and B-Raf (EPAC activity); assay type: cell-based, human
Protocol: as §3
Production of sAC protein in the LNCaP and PC3 prostate carcinoma cell lines was analyzed by Western blot. In particular, cells were lysed in Laemmli buffer containing 2% SDS, 10% glycerol, 5% 2-mercaptoethanol, 0.002% bromphenol blue, and 0.0625 mol/liter Tris-HCl. Equal amounts of total proteins were separated on SDS-polyacrylamide gels and transferred to a nitrocellulose membrane. The following primary antibodies were used: sAC (clones R21 and R40; provided by Dr. J. Buck) and actin (Millipore, Billerica, Mass.). After incubation with peroxidase-linked and horseradish peroxidase-labeled secondary antibodies, specific bands were visualized by chemiluminescence using an ECL Plus kit. Equivalent sample loading was confirmed by stripping the membranes with RESTORE™ Western blot stripping buffer (Thermo Fisher Scientific, Rockford, Ill.), followed by treatment with anti-actin antibody.
To test the role of EPAC in proliferation control, the effects of inhibition of sAC on EPAC activity in LNCaP cells was examined.

LNCaP cells [5] = test: Cellular cAMP content after KH7 treatment; assay type: cell-based, human; conditions: 24 hours, dose-dependent
Protocol: as §1
as §4, with “experiment. […]” for “experiment.”

PC3 cells [6] = test: Cellular cAMP content after KH7 treatment; assay type: cell-based, human; conditions: PC3, 24 hours, dose-dependent
Protocol: as §1
as §4, with “experiment. […]” for “experiment.”

PC3 cells [7] = test: Cell proliferation (cell number per dish); assay type: cell-based, human; conditions: PC3, 24 hours, dose-dependent
Protocol: as §1
as §4, with “experiment. […]” for “experiment.”

PC3 and LNCaP cells = test: Cell growth and death analysis after 48 hours KH7 (LDH release, subG1, caspase-3 cleavage); assay type: cell-based, human; conditions: 20 μmol/L
Text: as §4
Treatment with KH7 reduced the intracellular cAMP content and suppressed cell proliferation in a dose-dependent manner in both cell lines with a maximal effect at 20 μmol/L, as shown in FIG. 2.

LNCaP cells [8] = test: Caspase-3 cleavage (Western blot); assay type: cell-based, human
Protocol: as §2, §5
Production of sAC protein in the LNCaP and PC3 prostate carcinoma cell lines was analyzed by Western blot. In particular, cells were lysed in Laemmli buffer containing 2% SDS, 10% glycerol, 5% 2-mercaptoethanol, 0.002% bromphenol blue, and 0.0625 mol/liter Tris-HCl. Equal amounts of total proteins were separated on SDS-polyacrylamide gels and transferred to a nitrocellulose membrane. The following primary antibodies were used: sAC (clones R21 and R40; provided by Dr. J. Buck) and actin (Millipore, Billerica, Mass.). […]

tmAC = conditions: up to 100 μmol/L; cited from earlier work
soluble guanylyl cyclase = conditions: up to 100 μmol/L; cited from earlier work
LNCaP cells [9] = test: Western blot of proteins controlling cell cycle progression (cyclins, CDK1); conditions: sAC inhibition
Protocol: Production of sAC protein in the LNCaP and PC3 prostate carcinoma cell lines was analyzed by Western blot. […] Equal amounts of total proteins were separated on SDS-polyacrylamide gels and transferred to a nitrocellulose membrane. […] After incubation with peroxidase-linked and horseradish peroxidase-labeled secondary antibodies, specific bands were visualized by chemiluminescence using an ECL Plus kit.
To investigate how sAC controls the G2/M transition, the expression of various cyclins and CDK1 was examined via Western blot as described above using the following primary antibodies: CDK1, phospho-CDK1, cyclin B1, cyclin D1, cyclin D3, and cyclin E2.

[10] = co-treatment with KH7, 24 hours

## Nc1ncnc2c1nc(Sc1ccc(Cl)cc1)n2[C@@H]1O[C@@H]2COP(=O)(O)O[C@H]2[C@H]1O [8-pCPT, 8-pCPT-cAMP]
LNCaP cells [1]; LNCaP
  effect on proliferation in cells treated with the sAC inhibitor KH7: prevented
LNCaP cells [2]; [10]
  effect on LDH release induced by sAC inhibition: prevented
LNCaP cells [3]; [10]
  effect on cell cycle block induced by sAC inhibition: prevented
LNCaP cells [4]; co-treatment with KH7
  effect on KH7-induced change of Rap1-GTP expression: reversed

## O=S(=O)(NCCNC/C=C/c1ccc(Br)cc1)c1cccc2cnccc12 [H-89]
LNCaP cells [1]; 24 hours
  effect on proliferation: no effect
LNCaP cells [2]
  effect on cytotoxicity (LDH activity): no effect
LNCaP cells [3]
  effect on distribution of the cell population within the cell cycle: no effect

## CC(Sc1nc2ccccc2[nH]1)C(=O)N/N=C/c1cc(Br)ccc1O (stereo not drawn) [KH7, (E)-2-(1H-benzo[d]imidazol-2-ylthio)-N′-(5-bromo-2-hydroxybenzylidene)propanehydrazide]
LNCaP cells [5]
  reduction of intracellular cAMP content, concentration of maximal effect: 20 µmol/L
PC3 cells [6]
  reduction of intracellular cAMP content, concentration of maximal effect: 20 µmol/L
LNCaP cells [1]; LNCaP, 24 hours, dose-dependent
  suppression of cell proliferation, concentration of maximal effect: 20 µmol/L
PC3 cells [7]
  suppression of cell proliferation, concentration of maximal effect: 20 µmol/L
PC3 and LNCaP cells
  apoptosis (subG1 population and cleavage of caspase-3): apoptosis
LNCaP cells [8]; time course over 48 hours
  time at which cleavage of caspase-3 first appeared: 24 h
LNCaP cells [3]; 24 hours, or siRNA transfection
  effect on cell cycle phases: cell cycle arrest at the G2 phase
LNCaP cells [3]; time course over 48 hours
  time at which percentage of cells in G2-phase reached maximal value: 24 h
  time at which percentage of cells in G2-phase started to rise: 12 h
LNCaP cells [4]; 18 hours
  Rap1-GTP (active form of Rap1) expression: significantly depleted
  phosphorylation of B-Raf: suppressed
LNCaP cells [4]; KH7 treatment, n=6, 0.79+0.01 in control
  expression of Rap1, optical band density as ratio to actin band density: 0.81+0.07
LNCaP cells [4]; KH7 treatment, n=8, 1.13+0.06 in control
  expression of B-Raf, optical band density as ratio to actin band density: 1.02+0.04
tmAC
  effect on tmAC: no effect
Soluble guanylyl cyclase
  effect on soluble guanylyl cyclase: no effect
LNCaP cells [9]
  expression of cyclin D1: not altered
  expression of cyclin D3: not altered
  expression of cyclin E2: not altered

## O=C(Nc1ncnc2c1ncn2[C@@H]1O[C@@H]2COP(=O)(O)O[C@H]2[C@H]1O)c1ccccc1 [N^6-benzoyl-cAMP]
LNCaP cells [1]; 24 hours
  effect on proliferation: no effect
LNCaP cells [1]; LNCaP
  effect on proliferation in cells treated with the sAC inhibitor KH7: no effect

## Nc1ncnc2c1ncn2[C@@H]1O[C@@H]2CO[P@@](O)(=S)O[C@H]2[C@H]1O [RpcAMP, (Rp)-cAMP-S]
LNCaP cells [1]; 24 hours
  effect on proliferation: no effect
LNCaP cells [2]
  effect on cytotoxicity (LDH activity): no effect
LNCaP cells [3]
  effect on distribution of the cell population within the cell cycle: no effect

B1: shRNA: adenovirus-driven anti-sAC-directed shRNA, hairpin construct of SEQ ID NO: 10 targeting rat sAC mRNA (nucleic acid)
chain: GGGGTACCAAAAAAGTGGAAAGTGGAACGAAAGCATCTCTTGAATGCTTTCGTTCCACTTTCCACAAACAAGGCTTTTCTCCAAG
LNCaP cells [1]; LNCaP, 72 hours, reduction from 6.37×10^5
  cell numbers after sAC knockdown: 3.56×10^5
LNCaP cells [2]; 72 hours
  LDH release after sAC knockdown: induced LDH release
LNCaP cells [8]; 72 hours
  caspase-3 cleavage after sAC knockdown: led to caspase-3 cleavage
